Measured values from ChEMBL document CHEMBL1201862, “PubChem BioAssay data set” (2004).
The source made the active and inactive calls. Cut-off read from the data, not from the text of the source, for most assays here: actives have a measured EC50 and inactives only a lower limit.

What was measured:
[1] = target: T1, Ubiquitin-conjugating enzyme E2 N (Homo sapiens, UniProt P61088); format: functional;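 note: Dose-response confirmation in a TR-FRET assay detecting UBC13-driven polyubiquitin chain formation, inhibition measured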
T1 sequence (P61088 whole entry): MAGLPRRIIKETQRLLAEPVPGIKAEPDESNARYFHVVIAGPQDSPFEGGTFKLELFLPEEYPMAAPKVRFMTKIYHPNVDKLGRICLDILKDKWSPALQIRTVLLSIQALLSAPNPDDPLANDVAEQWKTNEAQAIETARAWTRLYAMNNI

[2] = target: T2, RNA-binding protein pos-1 (Caenorhabditis elegans, UniProt G5EF15); assay: disruptors of C. elegans POS-1 RNA interaction – biochemical, fluorescence polarization, dose response (AID 1964);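 note: purified POS-1 fused to maltose binding protein made in E. coli; potency of compounds blocking POS-1 binding to fluorescent RNA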
T2 sequence (G5EF15 whole entry): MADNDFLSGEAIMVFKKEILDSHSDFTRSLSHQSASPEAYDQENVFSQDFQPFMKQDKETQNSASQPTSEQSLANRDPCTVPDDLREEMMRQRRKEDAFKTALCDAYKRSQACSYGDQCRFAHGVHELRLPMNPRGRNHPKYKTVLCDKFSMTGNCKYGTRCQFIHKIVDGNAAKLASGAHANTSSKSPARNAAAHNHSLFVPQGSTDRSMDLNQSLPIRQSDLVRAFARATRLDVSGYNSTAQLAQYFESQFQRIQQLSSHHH

[3] = target: T3, Zinc finger protein mex-5 (Caenorhabditis elegans, UniProt Q9XUB2); assay: potency of MEX-5 RNA-binding blockers – biochemical, C. elegans, fluorescence polarization, dose response (AID 1960)
T3 sequence (Q9XUB2 whole entry): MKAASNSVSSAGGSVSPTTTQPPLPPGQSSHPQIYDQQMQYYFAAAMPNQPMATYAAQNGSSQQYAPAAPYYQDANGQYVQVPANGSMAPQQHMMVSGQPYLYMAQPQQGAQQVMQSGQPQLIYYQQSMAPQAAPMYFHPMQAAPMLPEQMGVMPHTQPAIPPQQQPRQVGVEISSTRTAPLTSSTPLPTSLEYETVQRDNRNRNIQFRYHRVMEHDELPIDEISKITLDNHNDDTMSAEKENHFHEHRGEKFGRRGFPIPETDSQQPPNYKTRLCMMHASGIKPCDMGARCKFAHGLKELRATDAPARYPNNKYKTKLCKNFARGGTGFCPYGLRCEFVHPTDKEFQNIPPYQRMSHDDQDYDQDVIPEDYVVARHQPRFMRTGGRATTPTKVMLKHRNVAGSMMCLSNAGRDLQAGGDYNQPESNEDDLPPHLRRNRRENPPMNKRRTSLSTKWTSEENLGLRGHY

[4] = target: T4, Corticotropin-releasing factor receptor 2/Corticotropin-releasing factor-binding protein (Homo sapiens, UniProt P24387+Q13324); assay: activators of CRF receptor 2 with binding protein – uHTS hits, confirmation (AID 602473); format: functional; details: read-out: EC50_Mean
T4 sequence (Q13324 whole entry): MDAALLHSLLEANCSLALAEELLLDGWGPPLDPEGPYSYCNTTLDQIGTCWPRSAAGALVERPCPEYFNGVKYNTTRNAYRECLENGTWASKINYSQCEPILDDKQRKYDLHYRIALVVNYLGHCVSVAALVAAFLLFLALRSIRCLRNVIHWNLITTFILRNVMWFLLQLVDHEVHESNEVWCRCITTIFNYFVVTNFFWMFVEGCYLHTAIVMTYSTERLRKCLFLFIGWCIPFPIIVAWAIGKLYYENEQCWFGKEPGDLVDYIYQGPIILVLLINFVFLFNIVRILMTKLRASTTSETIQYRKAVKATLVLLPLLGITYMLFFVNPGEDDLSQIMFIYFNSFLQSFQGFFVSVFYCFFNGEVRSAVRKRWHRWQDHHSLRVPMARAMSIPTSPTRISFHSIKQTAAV
T4 sequence (P24387 whole entry): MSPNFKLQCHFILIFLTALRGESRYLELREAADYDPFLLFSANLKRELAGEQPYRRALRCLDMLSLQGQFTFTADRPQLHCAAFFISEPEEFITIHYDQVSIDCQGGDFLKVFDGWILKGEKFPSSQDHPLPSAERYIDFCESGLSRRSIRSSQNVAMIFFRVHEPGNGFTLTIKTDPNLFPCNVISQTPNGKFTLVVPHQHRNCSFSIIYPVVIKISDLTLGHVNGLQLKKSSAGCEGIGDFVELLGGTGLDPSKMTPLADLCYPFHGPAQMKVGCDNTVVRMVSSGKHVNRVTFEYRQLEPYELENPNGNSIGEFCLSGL

BJ [5] = assay: BJ-TERT fibroblast viability loss – cell-based, RAS-independent, luminescence, dose response (AID 1933); format: functional; details: Homo sapiens
BJ [6] = assay: cells; format: functional, cell-based; details: Homo sapiens
BJ [7] = assay: BJ-TERT-LT-ST fibroblast viability loss – cell-based, RAS-independent, luminescence, dose response (AID 1935); format: functional; details: Homo sapiens;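 note: BJ fibroblasts immortalized with TERT plus LT and ST oncogenes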
INS1 = assay: INS-1E survival protection against cytokine death – cell-based, luminescence, retest, dose response (AID 449756); format: functional; details: Rattus norvegicus;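 note: cell death triggered by IL-1 beta plus TNF-alpha plus IFN-gamma mixture; protective hits raise ATP signal compared with cytokine alone wells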
[8] = Luminescence Cell-Based Dose Retest to Confirm Inhibitors of Cancer Stem Cells. [Related pubchem assays (depositor defined):AID2717, AID2721]; format: functional; details: Homo sapiens
[9] = DRD fibroblast viability loss – cell-based, non-viral oncogenic, luminescence, dose response (AID 1934); format: functional; details: Homo sapiens
[10] = viability of HCT116 lacking mutant beta-catenin – cell-based, human colon tumor, dose response (AID 1045); format: functional;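 note: HCT116 colon tumor cells with beta catenin knocked out; cells exposed to compound for 60 hours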
[11] = viability of PTEN-deleted HCT116 cells – cell-based, HCT116 PTEN knockout, dose response (AID 1047); format: functional;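 note: HCT116 colon tumor cells with PTEN knocked out; cells exposed to compound for 60 hours before readout; potency for loss of cell viability measured by luminescence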
H4 = assay: Luminescence Cell-Based Dose Response HTS to Identify Activators of 5'UTR Stem-Loop Driven Prion Protein mRNA Translation in H4 Neuroglioblastoma Cells. [Related pubchem assays: 1829 (Project Summary), 1814 (Primary HTS)]; format: functional; details: Homo sapiens
[12] = Luminescence Cell-Based Dose Response HTS to Identify Activators of Luciferase Translation or Activity in H4 […] Cells. [Related pubchem assays: 1829 (Project Summary), 1814 (Primary HTS)]; format: functional
cells = format: functional
[13] = HIV-1 AD8 envelope cell-cell fusion blockers – cherry-pick, dose response (AID 652062); format: functional, cell-based;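 note: luciferase signal from cell-cell fusion driven by HIV-1 clade B AD8 Env; potency is for inhibitors of fusion seen as a drop in luminescence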
[14] = viability of uninfected HEp-2 cells – cell-based, HTS, cytotoxicity control for RSV inhibitor project, dose response (AID 2410); format: functional; details: human respiratory syncytial virus
Vero = assay: cells; format: functional; details: Chlorocebus sabaeus
[15] = Trypanosoma cruzi growth suppression in host cells – NIH3T3 host cells, beta-gal luminescence, confirmation (AID 2044); format: functional, cell-based;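 note: intracellular parasites grown in NIH/3T3 mouse fibroblasts as host cells; luminescent beta-galactosidase reporter signal from transgenic T. cruzi replicating inside host cells; inhibitors lower the luminescence signal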
[16] = system: Streptococcus sp. 'group A'; assay: Streptococcus pyogenes SK(-)GAS viability under kanamycin – luminescence, BacTiterGlo, confirmation, counter-screen for streptokinase expression inhibitor project, dose response (AID 1900); format: functional, organism-based
[17] = NIH3T3 cell viability loss – ATP luminescence, mouse fibroblasts, counter-screen, dose response (AID 2010); format: functional, cell-based;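 note: cells exposed to compound for about 90 hours before reading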
Streptococcus = assay: GAS UMAA2166 growth inhibition – luminescence, BacTiterGlo, counter-screen for streptokinase expression inhibitor project, dose response (AID 1915); format: functional, organism-based;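 note: potency for reduction of bacterial viability or growth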
[18] = blockers of HIV-1 ZM109 envelope-driven cell-cell fusion – HeLa effector, CEM target cells, luciferase, cherry-pick, dose response (AID 652058); format: functional, cell-based;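 note: luciferase signal from HIV-1 Env mediated cell-cell fusion of effector and target cells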
[19] = microbe, parasite or virus in culture; format: functional; details: Mycobacterium tuberculosis
Streptokinase A = target: T5, Streptokinase A (Streptococcus pyogenes serotype M1, UniProt P10520); assay: viability-normalized secreted streptokinase activity reduction – plasminogen activation absorbance, OD405, dose response (AID 1914); format: functional, Streptococcus pyogenes M1 GAS;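 note: secreted streptokinase activity via plasminogen activation per viability signal from cell pellet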
T5 sequence (P10520 whole entry): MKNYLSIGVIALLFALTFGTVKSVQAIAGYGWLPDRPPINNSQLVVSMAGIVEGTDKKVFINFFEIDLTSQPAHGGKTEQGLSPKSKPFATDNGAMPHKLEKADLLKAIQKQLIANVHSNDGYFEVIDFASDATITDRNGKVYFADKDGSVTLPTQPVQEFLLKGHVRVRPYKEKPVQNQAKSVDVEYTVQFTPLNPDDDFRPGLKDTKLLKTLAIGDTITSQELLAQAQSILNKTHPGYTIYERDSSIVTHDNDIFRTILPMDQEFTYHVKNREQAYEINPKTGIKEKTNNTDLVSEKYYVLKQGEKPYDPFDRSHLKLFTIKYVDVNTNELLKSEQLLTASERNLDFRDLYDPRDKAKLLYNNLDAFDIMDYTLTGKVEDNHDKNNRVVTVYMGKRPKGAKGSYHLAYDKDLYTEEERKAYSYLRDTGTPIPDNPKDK

[20] = P. falciparum Dd2 growth inhibitors, dose response, SYBR Green, cherry-picked samples (AID 1159567); format: functional, cell-based

CCCC(=O)N(CCN1CCOCC1)c1nc2c(C)cccc2s1
IC50 [1]: > 20 µM (inactive)

CCN(CC)S(=O)(=O)c1ccc(N/C=C2\C(=O)N(C)C(=O)C(C#N)=C2C)cc1
EC50 [2]: 32.7 µM (active) | EC50 [3]: 44.4 µM (active)

Cc1cc(N2CCOCC2)nc(NCc2ccccc2)n1
EC50 [4]: 5.68 µM (active)

N#CC1=C(N)N2C(=C(C#N)C1c1ccc(Br)cc1)Nc1ccccc12 (stereo not drawn)
EC50 (BJ [5]): 11.8 µM (inconclusive) | EC50 (BJ [6]): 62.4 µM (active) | EC50 (BJ [7]): > 150 µM (inconclusive) | AC50 (INS1): 3.56 µM (active) | AC50 [8]: 0.794 µM (active) | EC50 [9]: 9.84 µM (active)

O=C(NCC1OCCc2ccccc21)c1ccc(NC(=O)c2cccc(Br)c2)cc1 (stereo not drawn)
EC50 [10]: 36.9 µM (active) | EC50 [11]: 25.2 µM (active)

CCN(CC)c1ccc(N=Nc2nc[nH]n2)cc1
EC50 [2]: 73.4 µM (active) | EC50 [3]: > 300 µM (inconclusive)

O=[N+]([O-])c1ccc2nc(O)c(/C=C(\O)c3ccccc3)nc2c1
EC50 [2]: 20.1 µM (active) | EC50 [3]: > 300 µM (inconclusive)

CCOC(=O)c1sc2nc3n(c(=O)c2c1C)CCCCC3
EC50 (H4): 101 µM (active) | EC50 [12]: 27.9 µM (active)

O=C1Nc2cc(Cl)cnc2N2CCCC12 (stereo not drawn)
EC50 [2]: 16.8 µM (active) | EC50 [3]: 12.5 µM (active)

O=C(Nc1ccc(-c2nc3ccccc3c(=O)o2)cc1)c1ccco1
IC50 (cells): 0.84 µM (active)

CCC1(C)Cc2c(sc3nnn(CC(=O)Nc4cccc5ccccc45)c(=O)c23)CO1 (stereo not drawn)
EC50 [10]: 23.9 µM (active) | EC50 [11]: 25.8 µM (active)

COc1ccc(/C=C/c2nc(S(=O)(=O)c3ccccc3)c(NCCCN(C)C)o2)cc1OC
AC50 [13]: 14.6 µM (active)

Cc1cc(NC(=O)CSc2nc3c(c(=O)n2-c2ccc(Br)cc2)SCC3)no1
EC50 [10]: 155 µM (active)

Cc1cccc(-c2nc(C#N)c(NCC3CCCO3)o2)c1 (stereo not drawn)
EC50 (H4): 36 µM (active) | EC50 [12]: 1.97 µM (active)

COc1ccc(NC(=O)C(c2cc3c(cc2[N+](=O)[O-])OCO3)N(C)c2ccccc2)cc1 (stereo not drawn)
EC50 [4]: > 53 µM (inactive)

CCOC(=O)CC(=O)Nc1ccc(C(=O)OCC)cc1
IC50 (cells): 22.4 µM (active)

CCc1nc2sc3c(c2c(=O)n1NC(=O)CCl)CCCC3
EC50 (BJ [5]): > 150 µM (not active) | CC50 [14]: 10.2 µM (active) | EC50 (BJ [6]): > 150 µM (not active) | EC50 (BJ [7]): > 150 µM (not active) | EC50 [9]: > 150 µM (not active)

O=C1NC(=O)N(Cc2ccc(F)cc2)C(=O)/C1=C\c1ccc([N+](=O)[O-])s1
IC50 (cells): 24.7 µM (active)

COc1cc(/C=C/c2ccc3cccc(O)c3n2)c(Br)cc1O
CC50 (Vero): 8.46 µM (active) | EC50 [15]: 3.92 µM (active) | EC50 [16]: 0.865 µM (active) | EC50 [17]: > 60 µM (not active) | EC50 (Streptococcus): 2.68 µM (active)

CN(C)c1ccc(/C=C2\C(=N)N3N=C(CC(=O)N4CCCCC4)SC3=NC2=O)cc1
EC50 [4]: 6.36 µM (active)

O=C(NCC1CCCCC1)c1ccc(F)cc1Cl
EC50 (H4): > 120 µM (not active) | EC50 [12]: 107 µM (active)

Cc1ccsc1C1NC(=O)c2c(sc3c2CCN(C)C3)N1 (stereo not drawn)
EC50 [4]: > 53 µM (inactive)

Cc1cc(O)c(CN(C)C)c2c1C(=O)/C(=C/c1ccco1)O2
EC50 [2]: 32.1 µM (active) | EC50 [3]: 39.8 µM (active)

C=C[C@](C)(CC[C@@]1(C)C(C)CC(OC2OC(C)C(OC3OC(COC(C)=O)C(O)C(O)C3O)C(O)C2O)[C@@]2(C)C(C)=CCCC12)OC1OC(C)C(O[C@@H]2O[C@@H](C)C(O)C(O)[C@H]2O)C(O)C1O (stereo partly drawn)
IC50 [1]: > 20 µM (inactive)

NCCCC[C@@H](C(=O)N1CCNCC1)n1cc(CN)nn1
IC50 [1]: > 20 µM (inactive)

C=CCC[C@@H](Cc1ccc(F)cc1)C(=O)OC[C@H](Cc1c[nH]c2ccccc12)NC(=O)[C@@H](CC=C)CC(=O)NCCO
EC50 [4]: 11.4 µM (active)

COC(=O)C1CCN(C(=O)COC(=O)c2cc(S(=O)(=O)N3CCOCC3)ccc2C)CC1
AC50 [18]: 17.5 µM (active) | AC50 [13]: 45.6 µM (active)

C/C(=N\NC(=O)CSCc1ccc([N+](=O)[O-])cc1)c1ccccc1O
IC50 [1]: > 20 µM (inactive)

CC1=CC(C)(C)n2c(O)c(/N=N/C(=N)S)c3cc(C)cc1c32
IC50 [1]: > 20 µM (inactive)

C/C(=N\NC(=O)c1cc([N+](=O)[O-])cc([N+](=O)[O-])c1)c1ccco1
EC50 [15]: 0.768 µM (active) | IC50 (cells): 3.35 µM (active) | EC50 [17]: > 60 µM (not active)

Oc1ccc(Br)cc1/C=N/Nc1nc(N2CCCCC2)nc(N2CCOCC2)n1
EC50 [15]: 1.91 µM (active) | CC50 [19]: > 40 µM (active) | EC50 [16]: 3.48 µM (active) | EC50 (Streptokinase A): 33.6 µM (active) | EC50 [17]: > 60 µM (not active) | EC50 (Streptococcus): 24.7 µM (active)

Cc1ccccc1S(=O)(=O)N1[C@H](C#N)[C@H](c2ccc(C#CC3CCCC3)cc2)[C@@H]1CO
AC50 [20]: 5.11 µM (active)
